Like-named read-outs stand apart in the source and are kept apart here.
System: U2OS_Bim cells
Assay: Apoptosis inhibition assay (Bim-induced apoptosis, cell viability by ATP level)
Assay type: cell-based
Experimental: A chemical library containing 200000 compounds was screened according to the following procedure: U2OS_Bim cells (a cell line in which the BH3-only protein Bim can be inducibly expressed by the addition of Doxycycline to the growth medium)^[2] were plated in 384-well plates with 30 μl medium at a density of 500 cells per well. 16 hrs after plating, test compounds were transferred from stock plates to the assay plates with the cultured cells. Positive control (20 μM zVAD) and negative control (DMSO) were added to every plate. 1 hr after compound treatment, 0.1 ug/mL Doxycyclin (DOX) was added to induce the expression of the Bim protein. After 24 hrs, cell viability was determined by measuring the ATP levels using a Cell Titer-Glo kit (Promega, G7570) according to the manufacturer's instructions. Luminescence was recorded with a PerkinElmer EnSpire Multimode Plate Reader. Compounds that could rescue cell viability to a level above 50% were selected; these compounds were then screened a second time for assurance.
U2OS_Bim or U2OS_tBid cells were plated at a density of 3000 cells per well in 96-well plates. 24 hrs later, cells were treated with experimental compounds, zVAD (positive control) and DMSO (Negative control) for one hour. The cells were then treated with 0.1 μg/mL DOX to trigger apoptosis. 24 hours after the addition of DOX, cell viability was determined by measuring the ATP levels using a Cell Titer-Glo kit. Cell survival rate was calculated.
U2OS_Bim cells (a U2OS stable cell line transfected with a Bim transgene) were cultured in DMEM culture medium (Gibico). On day one, U2OS_Bim cells were plated in 96-well plates at a density of 3000 cells per well. On day two, cells were pretreated with compounds for one hour. Then cells were treated with 0.1 μg/mL doxycycline (DOX) to trigger apoptosis. 24 hours after DOX treatment, cell viability was determined by measuring the ATP levels using the Cell Titer-Glo kit (G7570, Promega), according to the manufacturer's instructions. Luminescence was recorded with a PerkinElmer EnSpire Multimode Plate Reader. Survived cells were normalized to those cells treated with DMSO. zVAD (20 μM) was used as a positive control. Activity data for compounds […] are represented as means f standard deviation of duplicates; activity data for compounds 187-274 are estimated based on preliminary results.

[1] = U2OS_Bim cells, estimated (*Est.) / preliminary results, numbering of Tables 4a/4b, read-out: EC50
[2] = U2OS_Bim cells, means of duplicates, numbering of Tables 4a/4b, read-out: EC50
[3] = U2OS_Bim cells, estimated based on preliminary results, numbering of Tables 4a/4b, read-out: EC50

| Compound | EC50 [2] | EC50 [3] | other results |
| --- | --- | --- | --- |
| Cc1cc(-c2cc(F)c(=O)n(Cc3ccc4c(c3)OCO4)c2)nc(S(=O)(=O)CCC(OCC2CCCCC2)c2ccccc2)n1 (stereo not drawn) [Compound 409] | – | – | EC50 [1]: 0.001 to 1 µM |
| Cc1cc(-c2cc(F)c(=O)n(Cc3ccc4c(c3)OCO4)c2)nc(S(=O)(=O)CCC(OCC2CN(C)C2)c2ccccc2)n1 (stereo not drawn) [Compound 416] | – | – | EC50 [1]: 0.001 to 1 µM |
| CS(=O)(=O)c1nc(-c2cccc(OCc3ccccc3)c2)cc(C(F)(F)F)n1 [Compound 75, 4-(3-(benzyloxy)phenyl)-2-(methylsulfonyl)-6-(trifluoromethyl)pyrimidine] | – | – | EC50: 1 to 20 µM |
| COc1ccc(Cn2cc(-c3cc(C(F)(F)F)nc([S+](C)[O-])n3)ccc2=O)cc1 (stereo not drawn) [Compound 111, 1-(4-Methoxybenzyl)-5-(2-(methylsulfinyl)-6-(trifluoromethyl)pyrimidin-4-yl)pyridin-2 (1H)-one] | 0.001 to 1 µM | – | – |
| CS(=O)(=O)c1nc(-c2ccc(=O)n(Cc3ccc4ccncc4c3)c2)cc(C(F)(F)F)n1 [Compound 250] | – | < 10 µM | – |
| Cc1cc(-c2cc(F)c(=O)n(Cc3ccc4ccn(C)c4c3)c2)nc(S(=O)(=O)CCC(OCc2ccccc2F)c2ccccc2)n1 (stereo not drawn) [Compound 349] | – | – | EC50 [1]: 0.001 to 1 µM |
| CNC(=O)CCC[S+]([O-])c1nc(-c2ccc(=O)n(Cc3ccc(OC)c(OC)c3)c2)cc(C(F)F)n1 (stereo not drawn) [Compound 177, 4-((4-(difluoromethyl)-6-(1-(3,4-dimethoxybenzyl)-6-oxo-1,6-dihydropyridin-3-yl)pyrimidin-2-yl)sulfinyl)-N-methylbutanamide] | < 100 µM | – | – |
| Cc1cc(-c2c[nH]c(=O)c(F)c2)nc(S(=O)(=O)CCC(OCc2ccccc2F)c2ccccc2)n1 (stereo not drawn) [Compound 325, 3-fluoro-5-(2-(3-(2-fluorobenzyloxy)-3-phenylpropylsulfonyl)-6-methylpyrimidin-4-yl)pyridin-2 (1H)-one] | 1 to 10 µM | – | – |
| C[S+]([O-])c1nc(-c2ccc(=O)n(Cc3ccc4[nH]cnc4c3)c2)cc(C(F)(F)F)n1 (stereo not drawn) [Compound 229] | – | < 10 µM | – |
| COc1ccc(Cn2cc(-c3cc(C(F)F)nc([S+](C)[O-])n3)ccc2=O)cc1OC (stereo not drawn) [Compound 202, 5-(6-(difluoromethyl)-2-(methylsulfinyl)pyrimidin-4-yl)-1-(3,4-dimethoxybenzyl)pyridin-2 (1H)-one] | – | < 10 µM | – |
| COc1cccc(CS(=O)(=O)c2nc(-c3ccc(=O)n(Cc4ccc(OC)c(OC)c4)c3)cc(C(F)F)n2)c1 [Compound 172, 5-(6-(difluoromethyl)-2-((3-methoxybenzyl)sulfonyl)pyrimidin-4-yl)-1-(3,4-dimethoxybenzyl)pyridin-2 (1H)-one] | 0.001 to 1 µM | – | – |
| COc1ccc(Cn2cc(-c3cc(C(C)=O)nc(S(C)(=O)=O)n3)ccc2=O)cc1OC [Compound 163, 5-(6-acetyl-2-(methylsulfonyl)pyrimidin-4-yl)-1-(3,4-dimethoxybenzyl)pyridin-2 (1H)-one] | 0.001 to 1 µM | – | – |
| Cc1cc(-c2cc(F)c(=O)n(Cc3ccc4nnn(C)c4c3)c2)nc(S(=O)(=O)CCCn2c(=O)oc3ccccc32)n1 [Compound 367] | – | – | EC50 [1]: 0.001 to 1 µM |
| CS(=O)(=O)c1nc(-c2ccc(=O)n(Cc3cccc(O)c3)c2)cc(C(F)(F)F)n1 [Compound 108, 1-(3-hydroxybenzyl)-5-(2-(methylsulfonyl)-6-(trifluoromethyl)pyrimidin-4-yl)pyridin-2 (1H)-one] | 1 to 10 µM | – | – |
| Cc1cc(-c2cc(F)c(=O)n(Cc3ccc4c(c3)OCO4)c2)nc(S(=O)(=O)CCCN(c2ccccc2)C(C)(C)C)n1 [Compound 377] | – | – | EC50 [1]: 0.001 to 1 µM |
| CCCCCS(=O)(=O)c1nc(-c2ccc(=O)n(Cc3ccc(OC)c(OC)c3)c2)cc(C(F)(F)F)n1 [Compound 147, 1-(3,4-dimethoxybenzyl)-5-(2-(pentylsulfonyl)-6-(trifluoromethyl)pyrimidin-4-yl)pyridin-2 (1H)-one] | 0.001 to 1 µM | – | – |
| CS(=O)(=O)c1nc(-c2cccc(Oc3ccccc3)c2)cc(C(F)(F)F)n1 [Compound 73, 2-(methylsulfonyl)-4-(3-phenoxyphenyl)-6-(trifluoromethyl)pyrimidine] | 1 to 10 µM | – | – |

| Compound | EC50 [2] | EC50 [3] | other results |
| --- | --- | --- | --- |
| COc1ccc(Cn2cc(-c3cc(-n4cccn4)nc([S+](C)[O-])n3)ccc2=O)cc1OC (stereo not drawn) [Compound 220] | – | < 10 µM | – |
| CCc1ccc(Cn2cc(-c3cc(C(F)(F)F)nc(S(C)(=O)=O)n3)ccc2=O)cc1OC [Compound 264] | – | < 10 µM | – |
| COCCCS(=O)(=O)c1nc(-c2ccc(=O)n(Cc3ccc(OC)c(OC)c3)c2)cc(C(F)(F)F)n1 [Compound 144, 1-(3,4-dimethoxybenzyl)-5-(2-((3-methoxypropyl)sulfonyl)-6-(trifluoromethyl)pyrimidin-4-yl)pyridin-2 (1H)-one] | 0.001 to 1 µM | – | – |
| COc1ccc(Cn2cc(-c3cc(C(F)(F)F)nc(S(=O)(=O)Cc4ccncc4)n3)ccc2=O)cc1OC [Compound 190] | – | < 10 µM | – |
| CS(=O)(=O)c1nc(-c2cccc(C#N)c2)cc(C(F)(F)F)n1 [Compound 56, 3-(2-(methylsulfonyl)-6-(trifluoromethyl)pyrimidin-4-yl)benzonitrile] | 1 to 20 µM | – | – |
| Cc1cc(-c2cc(F)c(=O)n(Cc3ccc4c(c3)OCO4)c2)nc(S(=O)(=O)CCC(OCc2ccncc2)c2ccccc2)n1 (stereo not drawn) [Compound 402] | – | – | EC50 [1]: 0.001 to 1 µM |
| COc1ccc(Cn2cc(-c3cc(-c4ccccc4F)nc([S+]([O-])CCC(OCc4ccccc4)c4ccccc4)n3)ccc2=O)cc1OC (stereo not drawn) [Compound 297, 5-(2-((3-(benzyloxy)-3-phenylpropyl)sulfinyl)-6-(2-fluorophenyl)pyrimidin-4-yl)-1-(3,4-dimethoxybenzyl)pyridin-2 (1H)-one] | < 100 µM | – | – |
| C[S+]([O-])c1nc(-c2ccc(=O)n(Cc3ccc4c(c3)NCCN4)c2)cc(C(F)(F)F)n1 (stereo not drawn) [Compound 235] | – | < 10 µM | – |
| COc1ccn(Cn2cc(-c3cc(C(F)(F)F)nc(S(C)(=O)=O)n3)ccc2=O)c1 [Compound 260] | – | < 10 µM | – |
| CNc1ccc(Cn2cc(-c3cc(C(F)(F)F)nc(S(C)(=O)=O)n3)ccc2=O)cc1OC [Compound 236] | – | < 10 µM | – |
| CS(=O)(=O)c1nc(-c2ccc(=O)n(Cc3ccc4c(c3Br)OCO4)c2)cc(C(F)(F)F)n1 [Compound 137, 1-((4-bromobenzo[d][1,3]dioxol-5-yl)methyl)-5-(2-(methylsulfonyl)-6-(trifluoromethyl)pyrimidin-4-yl)pyridin-2 (1H)-one] | 0.001 to 1 µM | – | – |
| COc1ccc(Cn2cc(-c3cc(C(F)(F)F)nc(S(=O)(=O)Cc4ccc(-c5ccccc5)cc4)n3)ccc2=O)cc1OC [Compound 140, 5-(2-(([1,1′-biphenyl]-4-ylmethyl)sulfonyl)-6-(trifluoromethyl)pyrimidin-4-yl)-1-(3,4-dimethoxybenzyl)pyridin-2 (1H)-one] | 0.001 to 1 µM | – | – |
| C[S+]([O-])c1nc(-c2ccc(=O)n(Cc3ccc4cnccc4c3)c2)cc(C(F)(F)F)n1 (stereo not drawn) [Compound 249] | – | < 10 µM | – |
| Cc1cc(-c2cc(F)c(=O)n(Cc3ccc4c(c3)N(C)CO4)c2)nc(S(=O)(=O)CCC(OCc2ccccc2F)c2ccccc2)n1 (stereo not drawn) [Compound 354] | – | – | EC50 [1]: 0.001 to 1 µM |
| COc1ccc(Cn2cc(-c3cc(-c4nccs4)nc([S+](C)[O-])n3)ccc2=O)cc1OC (stereo not drawn) [Compound 213] | – | < 10 µM | – |
| Cc1cc(-c2cc(F)c(=O)n(Cc3ccc4c(c3)NCCN4)c2)nc(S(=O)(=O)CCC(OCc2ccccc2F)c2ccccc2)n1 (stereo not drawn) [Compound 346] | – | – | EC50 [1]: 0.001 to 1 µM |

Source: US11725000B2, “Apoptosis inhibitors” (National Institute of Biological Sciences, Beijing, priority 2017, dated 2023)
